{"source": "patent US10273313B2", "about": "“Multimeric mannosides, a process for preparing the same and their uses as a drug” (CENTRE NATIONAL DE LA RECHERCHE SCIENTIFIQUE, priority 2012, dated 2019)", "key": {"[1]": {"test_system": "AIEC LF82 bacteria in colonic loops of CEABAC10 mice expressing human CEACAM6", "assay": "Adhesion assay in colonic loops of CEABAC10 mice", "type": "in vivo", "settings": "dose of 0.1 μmol, 4 h incubation", "method": "E. coli strain LF82 was isolated from a chronic ileal lesion of a patient with Crohn's disease (CD). Bacteria were grown routinely in Luria-Bertani (LB) broth overnight at 37° C.\nThe transgenic mouse model CEABAC10 expressing the human CEACAM6 protein is available in the UMR Inserm/Université d'Auvergne 1071 led by Professor Arlette Darfeuille-Michaud at Clermont-Ferrand. This model is particularly suitable to reproduce the abnormal colonization by AIEC bacteria through the interaction with CEACAM6 molecules that were observed abnormally expressed in the ileal mucosa of Crohn's disease patients.\nThree colonic loops were realized in anesthetized CEABAC10 mice. A volume of 100 μl of a bacterial suspension containing 6×10^6 bacteria/mL with or without inhibitory compound was injected into the loops (here, compound 2, example 1) or heptyl-mannose at a concentration of 100 μM). After an incubation period of 4 h, mice were euthanized and each loop was longitudinally opened, extensively washed and homogenized to numerate adherent LF82 bacteria. Bacterial adhesion was expressed as percentages of residual adhesion (100% corresponds to the adhesion in absence of any compound)."}, "[2]": {"target": "T1, monovalent lectin domain of FimH (Escherichia coli, UniProt P08191)", "T1 construct": "with the monovalent lectin domain of FimH were measured using isothermal calorimetry (ITC)", "T1 sequence (P08191 22-179)": "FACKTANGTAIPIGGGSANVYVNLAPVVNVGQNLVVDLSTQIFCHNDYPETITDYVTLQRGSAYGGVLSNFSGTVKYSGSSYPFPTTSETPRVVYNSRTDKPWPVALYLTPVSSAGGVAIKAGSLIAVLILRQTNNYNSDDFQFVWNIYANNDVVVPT", "type": "binding"}, "[3]": {"test_system": "E. coli strain UTI89 in the bladder of C3H/HeN mice", "assay": "In vivo inhibition in the murine cystitis model (instillation with UTI89)", "method": "In vivo inhibition was evaluated by instilling 1-4 together with the UTI89 strain via a catheter in the bladder of C3H/HeN mice. […] A group of ten animals was used for each concentration of antagonists. […] The animals were sacrificed at a 6 h post infection time.\nA murine model of urinary tract infection was used to test the ability of the compounds to inhibit the colonization of UTI89 in the bladder [Hung C. S.; Dodson, K. W., Hultgren S. J. Nat. Protoc. 2009, 4, 1230-1243 and Wellens A.; Garofalo C.; Nguyen H.; Van Gerven N.; Slättegård R.; Hernalsteens, J.-P.; Wyns, L.; Oscarson, S.; De Greve H.; Hultgren S. J.; Bouckaert, J. PLoS ONE 2008, 3, e2040]. The solution with high concentration of compounds was added to the resuspension of UTI89 before given to the mice. The eight-week old Female C3H/HeN mice (Harlan, Horst, The Netherlands) were anesthetized and infected via transurethral catheterization of 10^7 CFU UTI89 in solution in PBS, or in PBS with the compound in the mentioned concentration. The mice were sacrificed at 24 hours post infection and the bladders were harvested, homogenized and resuspended in PBS. The serial dilutions were spot on LB medium agar plates. The bacterial load was determined by counting the CFU recovered from the bladder. The animal experiments were approved by the Ethical Committer for Animal Experiments of Vrije Universiteit Brussel and complied with all relevant national legislation and institutional policies. The Mann-Whitney test was applied for the comparison of the data obtained from the untreated group and inhibition group in GraphPad Prism version 5.1 and two tailed P value were shown (GraphPad software).\nA limited number of papers described the in vivo efficiency of anti-adhesive mannosides to treat UTIs."}}, "note": "Several values for one entry are separate records, joined by “and”; a condition that tells them apart may be missing. Equal entries are not always repeated. Where two headings read alike, the source gives them in different places.", "data": [{"smiles": "OCC1OC(OCCCCCCCOCc2cn(CC3OC4OC5C(Cn6cc(COCCCCCCCOC7OC(CO)C(O)C(O)C7O)nn6)OC(OC6C(Cn7cc(COCCCCCCCOC8OC(CO)C(O)C(O)C8O)nn7)OC(OC7C(Cn8cc(COCCCCCCCOC9OC(CO)C(O)C(O)C9O)nn8)OC(OC8C(Cn9cc(COCCCCCCCOC%10OC(CO)C(O)C(O)C%10O)nn9)OC(OC9C(Cn%10cc(COCCCCCCCOC%11OC(CO)C(O)C(O)C%11O)nn%10)OC(OC%10C(Cn%11cc(COCCCCCCCOC%12OC(CO)C(O)C(O)C%12O)nn%11)OC(OC3C(O)C4O)C(O)C%10O)C(O)C9O)C(O)C8O)C(O)C7O)C(O)C6O)C(O)C5O)nn2)C(O)C(O)C1O", "note": "(centres unmarked) [Compound 2]", "values": [{"measurement": "Bacterial adhesion in colonic loops compared with no inhibitor", "setting": "[1]", "value": "two-fold decreased adhesion"}, {"measurement": "Affinity of FimH for the ligand (in words)", "setting": "[2]; ITC", "value": "nanomolar affinities"}, {"measurement": "Molar ratio n meas", "setting": "[2]; normal (direct) titration", "value": 0.12}, {"measurement": "ΔG°", "setting": "[2]; normal (direct) titration", "value": -10.5, "unit": "kcal/mol"}, {"measurement": "ΔH°", "setting": "[2]; normal (direct) titration", "value": -77.5, "unit": "kcal/mol"}, {"measurement": "ΔS°", "setting": "[2]; normal (direct) titration", "value": "−227", "unit": "cal/mol/deg"}, {"measurement": "Kd", "setting": "[2]; normal (direct) titration, compound injected into FimH", "value": 18.2, "unit": "nM"}, {"measurement": "Molar ratio n meas", "setting": "[2]; reverse titration", "value": "3 and 3.01"}, {"measurement": "ΔG°", "setting": "[2]; reverse titration", "value": -11.6, "unit": "kcal/mol"}, {"measurement": "ΔH°", "setting": "[2]; reverse titration", "value": -19.2, "unit": "kcal/mol"}, {"measurement": "ΔS°", "setting": "[2]; reverse titration", "value": "−25.9", "unit": "cal/mol/deg"}, {"measurement": "Kd", "setting": "[2]; reverse titration, FimH injected into compound", "value": "2.86 nM and 2.9 nM"}, {"measurement": "Bacterial reduction compared with monovalent 1 and 3 at 1 mM", "setting": "[3]; 10 μM (1.8 and 2.5 μg)", "value": "equivalent bacterial reduction"}, {"measurement": "Reduction of urinary tract infection", "setting": "[3]; around 2 μg instilled in the mouse bladder, after 24 h", "value": "significantly reduced the urinary tract infection"}]}]}
